Source: article PMC10482691, “LTP induction by structural rather than enzymatic functions of CaMKII” (Nature, 2023)
“And” between values parts separate entries of the source, which are not always exact repeats. Identical values can stand only once.

Tests used:
Pim-1(h) = Pim-1(h) (Homo sapiens, UniProt P11309); assay: Kinase selectivity panel (residual activity at 1 μM); format: biochemical; conditions: inhibitor at 1 μM; read-out: residual kinase activity in % of maximal activity
[1] = system: GFP–paCaMKII T286A in hippocampal neurons; assay: paCaMKII T286A photoactivation: synaptic enrichment in hippocampal neurons; format: cell-based
Description: Neurons were wrapped in aluminium foil immediately following transfection and only exposed to red light in imaging. One image was then taken of each neuron to serve as a pre-photoactivation baseline. Immediately following this baseline image, paCaMKII was globally photoactivated with a 405 nm laser pulse (100 ms exposure, 75% laser power) once every 10 s for a total of 60 s. Neurons were then imaged 15 min after stimulation and assessed for CaMKII synaptic enrichment and dendritic spine growth.
Neuronal cultures were transfected on DIV 15–18 and imaged 24–48 h later. […] Two-dimensional maximum-intensity projection images were then generated and analysed using a custom-build programme in ImageJ. The programme utilizes combinatorial thresholding to mask regions of the cell that contain high-intensity puncta of postsynaptic density protein 95 (PSD95; a marker of the post-synaptic side of excitatory synapses in dendritic spines) and regions of the dendritic shaft that contain no fluorescence intensity of PSD95. As a measure of synaptic enrichment, the ratio of mean CaMKII fluorescence intensity of the PSD95 mask to the mean CaMKII fluorescence intensity in the dendritic shaft mask is measured. Spine growth was assessed by measuring the changes in mCherry cell fill fluorescence intensity within dendritic spine divided by the initial fluorescence intensity (F/F0).

[2] = system: CA1 LTP in CaMKIIα KO slices (mock); assay: LTP field recordings in slices of CaMKIIα KO mice injected with AAV-mScarlet (mock); format: cell-based, mouse; conditions: for fEPSP slope (normalized to baseline): individual slices, sheet 5b
Description: (§1) Stereotactic injections were performed on P24 CaMKIIα KO mice. Animals were anesthetized with an intraperitoneal injection of 2,2,2-Tribromoethanol (250 mg kg^−1) and then head fixed to a stereotactic frame (David Kopf Instruments). AAVs (0.2–0.5 µl) were injected into intermediate CA1 at a rate of […] using a syringe pump (World Precision Instruments). Coordinates (in millimetres) were anterior–posterior: −3.17; mediolateral: ±3.45 (relative to Bregma); and dorsoventral: −2.5 (relative to pia). To confirm specificity of the injection site following LTP recordings, slices were fixed in 4% paraformaldehyde; then, they were coverslipped and imaged on an Olympus slide scanning microscope.
(§2) WT and mutant mouse hippocampal slices were prepared using P56–P70 mice. Isoflurane-anesthetized mice were rapidly decapitated, and the brain was dissected in an ice-cold high-sucrose solution containing 220 mM sucrose, 12 mM MgSO4, 10 mM glucose, 0.2 mM CaCl2, 0.5 mM KCl, 0.65 mM NaH2PO4, 13 mM NaHCO3 and 1.8 mM ascorbate. Transverse hippocampal slices (400 μm) were made using a tissue chopper (McIlwain) and transferred into 32 °C ACSF containing 124 mM NaCl, 3.5 mM KCl, 1.3 mM NaH2PO4, 26 mM NaHCO3, 10 mM glucose, 2 mM CaCl2, 1 mM MgSO4 and 1.8 mM ascorbate. All slices were recovered in 95% O2/5% CO2 for at least 1.5 h before experimentation.
(§3) For electrophysiological slice recording experiments, a glass micropipette (typical resistance of 0.4–0.8 megaohm when filled with ACSF) was used to record fEPSPs from the CA1 dendritic layer in response to stimulation of the Schaffer collaterals using a tungsten bipolar electrode. Slices were continually perfused with 30.5 °C ± 0.5 °C ACSF at a rate of 2.5 ± 0.5 ml min^−1 during recordings. Stimuli were delivered every 20 s, and three responses (1 min) were averaged for analysis. Data were analysed using WinLTP software with slope calculated as the initial rise from 10 to 60% of the response peak. Input–output curves were generated by increasing the stimulus intensity at a constant interval until a maximum response or population spike was noted to determine stimulation that elicits 50% of maximum slope. […] A stable baseline was acquired for a minimum of 20 min at 50% maximum slope before high-frequency stimulation (HFS; 2 × 100 Hz, 10 s interval) was applied. Responses were recorded for 40 or 60 min after HFS. Change in slope was calculated as a ratio of the average slope of the 20 min baseline (before HFS). Bar graphs of the percentage of fEPSP slope were calculated by averaging the last 10 min time points post-HFS and normalized to baseline.

[3] = system: CA1 LTP in CaMKII F89G-expressing slices; assay: LTP field recordings in slices of CaMKIIα KO mice injected with AAV-mScarlet-CaMKII-F89G; format: cell-based, mouse; conditions: for LTP time course, normalized response per slice (sheet 5d): individual slices, NM-PP1 vs Vehicle, in %
Description: as §1, §2, §3

Chain of Pim-1(h) (P11309 whole entry): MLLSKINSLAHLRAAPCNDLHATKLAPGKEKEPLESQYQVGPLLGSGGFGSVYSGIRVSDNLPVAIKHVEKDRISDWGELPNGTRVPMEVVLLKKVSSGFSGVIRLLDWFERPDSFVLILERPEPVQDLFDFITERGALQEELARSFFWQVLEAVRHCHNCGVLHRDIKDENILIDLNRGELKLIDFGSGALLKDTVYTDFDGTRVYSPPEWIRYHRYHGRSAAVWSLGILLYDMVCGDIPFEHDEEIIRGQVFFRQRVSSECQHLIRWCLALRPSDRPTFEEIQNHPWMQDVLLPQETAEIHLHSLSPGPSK

## NCCNc1cccc(-c2ccnc3[nH]c4ccccc4c23)c1 [AS283]
Pim-1(h)
  remaining activity at 1 µM: 50%
[1]; AS283 10 μM
  CaMKII movement after photoactivation of paCaMKII T286A: robust CaMKII movement
[1]; paCaMKII T286A + AS283, individual neurons
  synaptic enrichment after photoactivation (sheet 6b): 1.441 and 1.27 and 1.593 and 1.399 and 1.769 and 1.014 and 1.25 and 1.28 and 1.281 and 1.778

## CC(C)(C)n1nc(Cc2cccc3ccccc23)c2c(N)ncnc21 [NM-PP1]
[2]; AAV-mScarlet (mock), 10 μM NM-PP1
  synaptic response 60 min following LTP induction (fEPSP slope normalized to baseline): 102.757% and 115.997% and 130.031% and 114.245% and 91.515% and 129.007%
[2]; NM-PP1
  effect on residual LTP in control slices: no effect
[2]; Time (min) 0
  fEPSP slope (normalized to baseline): 101.067 and 113.338 and 103.234 and 95.8969 and 93.1952 and 132.987
[2]; Time (min) 2.33333
  fEPSP slope (normalized to baseline): 249.911 and 143.318 and 169.121 and 175.176 and 145.841 and 156.755
[2]; Time (min) 4.33333
  fEPSP slope (normalized to baseline): 204.384 and 151.727 and 165.598 and 165.31 and 135.76 and 108.68
[2]; Time (min) 6.33333
  fEPSP slope (normalized to baseline): 189.169 and 150.265 and 135.884 and 160.117 and 120.975 and 129.276
[2]; Time (min) 8.33333
  fEPSP slope (normalized to baseline): 181.94 and 147.249 and 128.602 and 144.365 and 120.078 and 132.395
[2]; Time (min) 10.3333
  fEPSP slope (normalized to baseline): 172.351 and 139.799 and 136.941 and 133.459 and 110.893 and 130.889
[2]; Time (min) 12.3333
  fEPSP slope (normalized to baseline): 161.674 and 137.88 and 134.122 and 129.997 and 100.812 and 137.611
[2]; Time (min) 14.3333
  fEPSP slope (normalized to baseline): 174.774 and 134.406 and 129.19 and 125.67 and 98.5718 and 121.048
[2]; Time (min) 16.3333
  fEPSP slope (normalized to baseline): 159.559 and 133.63 and 131.891 and 126.189 and 89.1627 and 135.622
[2]; Time (min) 18.3333
  fEPSP slope (normalized to baseline): 153.964 and 134.681 and 128.015 and 124.631 and 95.4355 and 108.465
[2]; Time (min) 20.3333
  fEPSP slope (normalized to baseline): 149.095 and 132.944 and 120.851 and 126.189 and 102.828 and 98.3552
[2]; Time (min) 22.3333
  fEPSP slope (normalized to baseline): 149.671 and 128.922 and 119.442 and 125.843 and 91.627 and 123.092
[2]; Time (min) 24.3333
  fEPSP slope (normalized to baseline): 144.438 and 125.952 and 116.623 and 124.631 and 90.9549 and 132.503
[2]; Time (min) 26.3333
  fEPSP slope (normalized to baseline): 142.473 and 123.484 and 117.21 and 125.843
[2]; Time (min) -2
  fEPSP slope (normalized to baseline): 96.4978 and 115.989 and 102.999 and 98.6665 and 100.14 and 126.48
[2]; Time (min) -4
  fEPSP slope (normalized to baseline): 101.912 and 117.543 and 106.993 and 100.051 and 103.5 and 95.9353
[2]; Time (min) -6
  fEPSP slope (normalized to baseline): 102.969 and 117.634 and 102.06 and 101.09 and 99.2439 and 110.347
[3]; NM-PP1 10 μM
  effect on LTP induction in CaMKII F89G slices: enabled
[3]; Time (min) 0
  LTP time course, normalized response per slice (sheet 5d): 103.829 and 96.437 and 102.744 and 120.959 and 123.914 and 192.297 and 144.344 and 104.217 and 103.642 and 100.747 and 103.258 and 105.141 and 101.674 and 96.3411 and 105.44
[3]; Time (min) 2.33333
  LTP time course, normalized response per slice (sheet 5d): 150.168 and 204.285 and 322.186 and 119.321 and 114.899 and 190.522 and 128.721 and 184.151 and 177.879 and 161.407 and 188.756 and 121.03 and 118.847 and 177.028 and 124.93
[3]; Time (min) 4.33333
  LTP time course, normalized response per slice (sheet 5d): 139.017 and 204.469 and 290.028 and 113.213 and 106.868 and 195.712 and 130.419 and 192.043 and 166.691 and 143.621 and 171.089 and 117.041 and 117.676 and 154.052 and 148.947
[3]; Time (min) 6.33333
  LTP time course, normalized response per slice (sheet 5d): 131.831 and 176.494 and 247.758 and 112.468 and 113.588 and 169.626 and 124.646 and 168.164 and 143.426 and 132.43
[3]; Time (min) -2
  LTP time course, normalized response per slice (sheet 5d): 105.316 and 104.903 and 86.159 and 100.7 and 102.934 and 111.991 and 100.871 and 90.8613 and 108.408 and 99.877 and 100.511 and 99.326 and 97.9659 and 101.831 and 107.897
[3]; Time (min) -4
  LTP time course, normalized response per slice (sheet 5d): 102.838 and 104.535 and 87.5747 and 99.3595 and 101.459 and 104.616 and 103.249 and 75.684 and 101.138 and 101.174 and 99.4129 and 111.767 and 97.478 and 110.855 and 98.9622
[3]; Time (min) -6
  LTP time course, normalized response per slice (sheet 5d): 101.103 and 99.9338 and 95.867 and 99.0615 and 102.77 and 102.977 and 108.004 and 99.3605 and 103.117 and 97.9481 and 103.441 and 114.539 and 103.918 and 97.8041 and 96.1755
